Reference: PubChem BioAssay AID1918958 (Molecular Pharmacology Branch, DTP, NCI, 2023)
Values joined by “and” are separate entries in the source; they are usually repeats but may differ in a detail not shown here. Identical values can stand only once.

Tested on: NCI-H196 complex spheroid viability
Test: Anticancer human tumor NCI-H196 cell line growth inhibition [LSD1];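 also: spheroids exposed to agents for 7 days before readout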;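 as to viability, T/C: 100% = DMSO vehicle control viability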
Conditions: for viability, T/C: stronger effect = lower value
Summary of the method: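 Complex spheroids of tumor cells with HUVEC and human MSCs, exposed to iadademstat combined with other agents. Each agent tested in half-log steps from near clinical Cmax (else 10 microM top), DMSO ≤0.25%.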

[1] = curve of first compound, second compound 0.1 µM
[2] = curve of first compound, second compound 0.316 µM
[3] = curve of first compound, second compound 1 µM
[4] = curve of first compound, second compound 3.16 µM
[5] = curve of first compound, second compound 10 µM
[6] = second compound 0.1 µM, first compound 0.000949 µM
[7] = second compound 0.1 µM, first compound 0.003 µM
[8] = second compound 0.1 µM, first compound 0.00949 µM
[9] = second compound 0.1 µM, first compound 0.03 µM
[10] = second compound 0.1 µM, first compound 0.0949 µM
[11] = second compound 0.1 µM, first compound 0.3 µM
[12] = second compound 0.316 µM, first compound 0.000949 µM
[13] = second compound 0.316 µM, first compound 0.003 µM
[14] = second compound 0.316 µM, first compound 0.00949 µM
[15] = second compound 0.316 µM, first compound 0.03 µM
[16] = second compound 0.316 µM, first compound 0.0949 µM
[17] = second compound 0.316 µM, first compound 0.3 µM
[18] = second compound 1 µM, first compound 0.000949 µM
[19] = second compound 1 µM, first compound 0.003 µM
[20] = second compound 1 µM, first compound 0.00949 µM
[21] = second compound 1 µM, first compound 0.03 µM
[22] = second compound 1 µM, first compound 0.0949 µM
[23] = second compound 1 µM, first compound 0.3 µM
[24] = second compound 3.16 µM, first compound 0.000949 µM
[25] = second compound 3.16 µM, first compound 0.003 µM
[26] = second compound 3.16 µM, first compound 0.00949 µM
[27] = second compound 3.16 µM, first compound 0.03 µM
[28] = second compound 3.16 µM, first compound 0.0949 µM
[29] = second compound 3.16 µM, first compound 0.3 µM
[30] = second compound 10 µM, first compound 0.000949 µM
[31] = second compound 10 µM, first compound 0.003 µM
[32] = second compound 10 µM, first compound 0.00949 µM
[33] = second compound 10 µM, first compound 0.03 µM
[34] = second compound 10 µM, first compound 0.0949 µM
[35] = second compound 10 µM, first compound 0.3 µM

Nc1ccn(C2OC(CO)C(O)C2(F)F)c(=O)n1 (stereo unspecified) + NC1CC1c1ccc(-c2cccc(O)c2)cc1
IC50 [1]: > 0.3 µM
IC50 [2]: > 0.3 µM
IC50 [3]: > 0.3 µM
IC50 [4]: > 0.3 µM
IC50 [5]: > 0.3 µM
viability, T/C [6]: 119%
viability, T/C [7]: 105%
viability, T/C [8]: 97.4%
viability, T/C [9]: 65.2%
viability, T/C [10]: 68.9%
viability, T/C [11]: 62.6%
viability, T/C [12]: 106%
viability, T/C [13]: 107%
viability, T/C [14]: 79.7%
viability, T/C [15]: 66.8%
viability, T/C [16]: 67.3%
viability, T/C [17]: 67.7%
viability, T/C [18]: 108%
viability, T/C [19]: 108%
viability, T/C [20]: 75.6%
viability, T/C [21]: 68.7%
viability, T/C [22]: 61.6%
viability, T/C [23]: 71.2%
viability, T/C [24]: 117%
viability, T/C [25]: 104%
viability, T/C [26]: 96.4%
viability, T/C [27]: 76.2%
viability, T/C [28]: 67.2%
viability, T/C [29]: 72%
viability, T/C [30]: 111%
viability, T/C [31]: 98.2%
viability, T/C [32]: 91.3%
viability, T/C [33]: 71.9%
viability, T/C [34]: 72.5%
viability, T/C [35]: 69.3%

Nc1ccn(C2OC(CO)C(O)C2(F)F)c(=O)n1 (stereo unspecified)
viability, T/C (compound 0.000949 µM): 98.3% and 103%
viability, T/C (compound 0.003 µM): 95.8% and 101%
viability, T/C (compound 0.00949 µM): 97.9% and 81.6%
viability, T/C (compound 0.03 µM): 66.4% and 65.5%
viability, T/C (compound 0.0949 µM): 68.4% and 66.2%
viability, T/C (compound 0.3 µM): 63.8%
IC50 (curve of compound): > 0.3 µM

COc1ccc([C@@H](O)c2cc(-c3ncnc4cc(N5CCOCC5)ccc34)c(F)cc2Cl)nn1 + NC1CC1c1ccc(-c2cccc(O)c2)cc1
IC50 [1]: > 10 µM
IC50 [2]: > 10 µM
IC50 [3]: > 10 µM
IC50 [4]: > 10 µM
IC50 [5]: 6.48 µM
viability, T/C (second compound 0.1 µM, first compound 0.0316 µM): 106%
viability, T/C (second compound 0.1 µM, first compound 0.1 µM): 98.6%
viability, T/C (second compound 0.1 µM, first compound 0.316 µM): 79.1%
viability, T/C (second compound 0.1 µM, first compound 1 µM): 68.4%
viability, T/C (second compound 0.1 µM, first compound 3.16 µM): 64.2%
viability, T/C (second compound 0.1 µM, first compound 10 µM): 52%
viability, T/C (second compound 0.316 µM, first compound 0.0316 µM): 92%
viability, T/C (second compound 0.316 µM, first compound 0.1 µM): 90%
viability, T/C (second compound 0.316 µM, first compound 0.316 µM): 82.7%
viability, T/C (second compound 0.316 µM, first compound 1 µM): 71%
viability, T/C (second compound 0.316 µM, first compound 3.16 µM): 60.7%
viability, T/C (second compound 0.316 µM, first compound 10 µM): 50%
viability, T/C (second compound 1 µM, first compound 0.0316 µM): 102%
viability, T/C (second compound 1 µM, first compound 0.1 µM): 94.7%
viability, T/C (second compound 1 µM, first compound 0.316 µM): 90%
viability, T/C (second compound 1 µM, first compound 1 µM): 69.4%
viability, T/C (second compound 1 µM, first compound 3.16 µM): 62.2%
viability, T/C (second compound 1 µM, first compound 10 µM): 50.1%
viability, T/C (second compound 3.16 µM, first compound 0.0316 µM): 94.9%
viability, T/C (second compound 3.16 µM, first compound 0.1 µM): 105%
viability, T/C (second compound 3.16 µM, first compound 0.316 µM): 90.8%
viability, T/C (second compound 3.16 µM, first compound 1 µM): 68.2%
viability, T/C (second compound 3.16 µM, first compound 3.16 µM): 59.9%
viability, T/C (second compound 3.16 µM, first compound 10 µM): 48.2%
viability, T/C (second compound 10 µM, first compound 0.0316 µM): 103%
viability, T/C (second compound 10 µM, first compound 0.1 µM): 100%
viability, T/C (second compound 10 µM, first compound 0.316 µM): 86.2%
viability, T/C (second compound 10 µM, first compound 1 µM): 72.8%
viability, T/C (second compound 10 µM, first compound 3.16 µM): 59.2%
viability, T/C (second compound 10 µM, first compound 10 µM): 44.7%

COc1cc(Nc2ncc3c(n2)-c2ccc(Cl)cc2C(c2c(F)cccc2OC)=NC3)ccc1C(=O)O
viability, T/C (compound 0.00316 µM): 96.3% and 91.4%
viability, T/C (compound 0.01 µM): 103% and 105%
viability, T/C (compound 0.0316 µM): 114% and 99.4%
viability, T/C (compound 0.1 µM): 119% and 109%
viability, T/C (compound 0.316 µM): 132% and 120%
viability, T/C (compound 1 µM): 118% and 121%
IC50 (curve of compound): > 1 µM

COc1cc(C2c3cc4c(cc3C(OC3OC5COC(C)OC5C(O)C3O)C3COC(=O)C23)OCO4)cc(OC)c1O (stereo unspecified) + NC1CC1c1ccc(-c2cccc(O)c2)cc1
IC50 [1]: > 3 µM
IC50 [2]: > 3 µM
IC50 [3]: > 3 µM
IC50 [4]: > 3 µM
IC50 [5]: > 3 µM
viability, T/C [8]: 95.2%
viability, T/C [9]: 97%
viability, T/C [10]: 109%
viability, T/C [11]: 101%
viability, T/C (second compound 0.1 µM, first compound 0.949 µM): 85.1%
viability, T/C (second compound 0.1 µM, first compound 3 µM): 69.1%
viability, T/C [14]: 98.5%
viability, T/C [15]: 100%
viability, T/C [16]: 105%
viability, T/C [17]: 102%
viability, T/C (second compound 0.316 µM, first compound 0.949 µM): 88.2%
viability, T/C (second compound 0.316 µM, first compound 3 µM): 65.1%
viability, T/C [20]: 90.9%
viability, T/C [21]: 104%
viability, T/C [22]: 117%
viability, T/C [23]: 121%
viability, T/C (second compound 1 µM, first compound 0.949 µM): 84.1%
viability, T/C (second compound 1 µM, first compound 3 µM): 61.8%
viability, T/C [26]: 92.8%
viability, T/C [27]: 92.4%
viability, T/C [28]: 104%
viability, T/C [29]: 91.4%
viability, T/C (second compound 3.16 µM, first compound 0.949 µM): 76.9%
viability, T/C (second compound 3.16 µM, first compound 3 µM): 53.7%
viability, T/C [32]: 90%
viability, T/C [33]: 101%
viability, T/C [34]: 102%
viability, T/C [35]: 90.8%
viability, T/C (second compound 10 µM, first compound 0.949 µM): 78.5%
viability, T/C (second compound 10 µM, first compound 3 µM): 59.9%

Nc1ccn(C2OC(CO)C(O)C2(F)F)c(=O)n1 (stereo unspecified) + NC1CCC(NC2CC2c2ccccc2)CC1
IC50 [1]: > 0.3 µM
IC50 [2]: > 0.3 µM
IC50 [3]: > 0.3 µM
IC50 [4]: > 0.3 µM
IC50 [5]: > 0.3 µM
viability, T/C [6]: 104%
viability, T/C [7]: 98.6%
viability, T/C [8]: 85.9%
viability, T/C [9]: 65.1%
viability, T/C [10]: 61.8%
viability, T/C [11]: 68.1%
viability, T/C [12]: 96.8%
viability, T/C [13]: 99.3%
viability, T/C [14]: 93.7%
viability, T/C [15]: 69.2%
viability, T/C [16]: 59.2%
viability, T/C [17]: 70.3%
viability, T/C [18]: 97.3%
viability, T/C [19]: 96.7%
viability, T/C [20]: 85%
viability, T/C [21]: 63.9%
viability, T/C [22]: 64.2%
viability, T/C [23]: 63.5%
viability, T/C [24]: 99.7%
viability, T/C [25]: 103%
viability, T/C [26]: 88.2%
viability, T/C [27]: 63.8%
viability, T/C [28]: 63.8%
viability, T/C [29]: 68.3%
viability, T/C [30]: 94.2%
viability, T/C [31]: 108%
viability, T/C [32]: 86.5%
viability, T/C [33]: 75.6%
viability, T/C [34]: 65%
viability, T/C [35]: 67.4%

COc1ccc([C@@H](O)c2cc(-c3ncnc4cc(N5CCOCC5)ccc34)c(F)cc2Cl)nn1
viability, T/C (compound 0.0316 µM): 97.9% and 93.4%
viability, T/C (compound 0.1 µM): 100% and 90.9%
viability, T/C (compound 0.316 µM): 90.4% and 84.7%
viability, T/C (compound 1 µM): 86.4% and 85.7%
viability, T/C (compound 3.16 µM): 83.8% and 73.6%
viability, T/C (compound 10 µM): 57.7% and 53.2%
IC50 (curve of compound): > 10 µM
